Consider eleven compounds from EP0472220A1, “Bradykinin antagonists” (SYNTEX (U.S.A.) INC., priority 1990, dated 1992).

The subject of data set [1] is rat peritoneal mast cells. The note with it: rat mixed peritoneal cells, 15 minutes, 35°C.
Description: Mixed peritoneal cells were recovered from 3 or 4 male Sprague-Dawley rats (350 g, Iffa-Credo, France) by intraperitoneal injection of 10 mL of 0.9% NaCl (containing 50 µg/mL heparin). After gentle massage of the abdominal cavity for 1 minute, the peritoneal cells were removed, pooled and centrifuged for 5 minutes at 300 g. After three rinses in Krebs-Ringer Buffer (KRB: 141.9 mM NaCl; 4.7 mM KCl; 1.0 mM CaCl₂, 11.2 mM MgSO₄; 2.5 mM Na₂HPO₄; 0.6 mM KH₂PO₄), the cells were counted under a microscope and diluted in the appropriate volume of KRB to achieve a cell density of about 2 x 10⁶ cells per mL. Aliquots of 0.5 mL were prewarmed with 0.4 mL Ca⁺⁺-free KRB for 5 minutes at 35°C and 0.1 mL of the appropriate solution of the drugs tested was added or its vehicle alone. 15 minutes later, the reaction was stopped by the addition of 2.5 mL ice-cold KRB and chilling on ice.
After centrifugation of the cell suspension, the histamine content of the supernatant was assayed fluorimetrically by the method of Shore et al., (Immunol. 1959, 127:182) omitting the extraction procedure (Excitation 365 nm; Emission 450 nm).
The total histamine content of the cell suspension was determined after sonication (2 minutes - 5 second pulse frequency).
The spontaneous histamine release was subtracted from all the values measured.
In another data set the target is T1, Bradykinin Receptor (Cavia porcellus, UniProt O70526).
T1 construct: A 5 cm section of the distal ileum was removed, rinsed in cold saline and homogenized; from tissue; host or cells: guinea pig distal ileum, crude membrane pellet
T1 sequence (O70526 1-372): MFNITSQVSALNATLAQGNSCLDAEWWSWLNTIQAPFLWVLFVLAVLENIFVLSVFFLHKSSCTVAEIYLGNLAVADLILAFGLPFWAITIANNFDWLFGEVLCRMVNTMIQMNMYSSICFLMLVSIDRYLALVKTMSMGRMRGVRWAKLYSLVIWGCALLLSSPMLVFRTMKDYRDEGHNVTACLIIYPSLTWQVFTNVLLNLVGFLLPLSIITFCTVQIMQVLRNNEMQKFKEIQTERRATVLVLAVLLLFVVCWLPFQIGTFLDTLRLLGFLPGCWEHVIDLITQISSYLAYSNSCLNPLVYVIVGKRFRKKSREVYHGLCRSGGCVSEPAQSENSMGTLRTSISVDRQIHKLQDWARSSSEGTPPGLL
The data set is described as follows: Guinea pig ileum bradykinin receptor binding assay. The note with it: concentration of analog that reduced the binding of 100 pM [³H]bradykinin by 50%; guinea pig ileum membrane preparation; read-out: IC₅₀. As to the method: The bradykinin analogs were assayed using a cell-free membrane receptor binding assay described by Innis et al Proc. Natl. Acad. Sci. USA 1981, 78:2630. Male Hartley guinea pigs (400-500g, Charles River) were euthanized by CO₂ asphyxiation. A 5 cm section of the distal ileum was removed, rinsed in cold saline and homogenized in 20 volumes of cold 20 mM TES buffer, pH 6.8, 1mM 1,10-phenanthroline using a Tissumizer (Tekmar) at 75% maximum speed for 12 seconds. The homogenate was centrifuged at 15,000 X g for 25 minutes at 4°C. The crude membrane pellet was washed once in 20 volumes of fresh homogenizing buffer and resuspended in assay buffer (25 mM TES buffer, pH 6.8, 1 mM dithiothreitol, 1 mM 1,10-phenanthroline, 1 µM captopril, 0.014% bacitracin and 0.1% bovine serum albumin) at 100 mL buffer per gram issue. The membrane preparation was quick-frozen in liquid N₂ and stored at -80°C.
The reaction mixture for the receptor binding assay contained bradykinin analog (1-1000 nM), 100 pM [³H]bradykinin (88 Ci/mmol) and 200 µl membrane preparation in a total volume of 500 µl assay buffer. Reactions were incubated at room temperature for 90 minutes and membrane-bound [³H]bradykinin was isolated by filtration through PEI-coated glass fiber filters. The filters were dried and counted for radioactivity in a liquid scintillation counter. Specific binding was calcuated by subtracting the nonspecific binding (determined in a parallel set of assays in the presence of 1 µM unlabeled bradykinin) from the total radioactivity bound to the filters. All incubations were performed in duplicate and the data expressed as % reduction in the specific binding of [³H]bradykinin. The IC₅₀ (the concentration of analog that reduced the binding of 100 pM [³H]bradykinin by 50%) was determined graphically from a plot of % reduction vs. log concentration.

Data set [2] is described as follows: in vitro. The method, then:
(§1) The ability of bradykinin antagonists to resist proteolysis was determined by measuring the half-life of the analogs in plasma using HPLC. Rat blood was collected into heparin-containing tubes and centrifuged at 2000 X g for 10 minutes at 4°C to separate the plasma. Plasma samples were supplemented with bradykinin analogs (60 µM) and incubated at 37°C. At various times during incubation, an aliquot was removed and the reaction was stopped with 10% trifluoroacetic acid (TFA). The reaction mixture was applied to a 1 mL C₁₈ solid-phase extraction column (Baker) preconditioned with methanol and 10% TEA in H₂O. The analog was eluted with 3 x 100 µl of 15% acetonitrile (CH₃CN), 85% H₂O containing 0.2% TFA. The eluent was dried in a Speed-Vac concentrator (Savant) and redissolved in 300 µL of mobile phase consisting of various proportions of CH₃CN and H₂O containing 0.2% TEA depending on the analog. The sample was injected onto a Pecosphere® (Perkin-Elmer) 3 µm C₁₈ cartridge column (3.3 x 0.46 cm) and eluted with mobile phase at a flow rate of 1 ml/min using a Waters HPLC system. The analog was monitored by uv absorption at 210 nm and the results analyzed with a Hewlett-Packard integrator. Peak height was used to quantitate the amount of analog present in the sample. Plasma degradation followed first-order kinetics and the t1/2 (the time required for half the sample to be degraded) was determined graphically from a plot of log % analog remaining vs. incubation time.

A short description of data set [3]: in vitro. The method, then: as §1
This is another data set of the same source.

The conditions of data set [4]: Ferreira et al. 1967; cited from earlier work.
In data set [5] the test system is Bradykinin-induced Hypotension. The data set is described as follows: Protection against bradykinin-induced hypotension in rats. Format: in vivo, Male Sprague-Dawley rats. The note with it: co-administration (50-200 nmol/kg) with bradykinin (0.4 µg/kg) via carotid cannula, anesthetized rats. As to the method:
Male Sprague-Dawley rats (200-300 g, Charles River) were anesthetized with 40 mg/kg ip sodium pentobarbital. The left femoral artery and vein were fitted with polyethylene cannulas (Intramedic PE-50) and the left carotid artery was fitted with a PE-20 cannula. […] The femoral arterial cannula was connected to a blood pressure transducer (Statham) and Beckman dynograph for recording systolic and diastolic pressure. The femoral venous cannula was used to administer maintenance anesthesia. […] All cannulas were filled with heparinized (40 U/mL) saline to maintain patency. Rats were placed on a 37°C water blanket and allowed to reach a stable anesthetic plane characterized by a mean arterial blood pressure of ≧90 mm Hg and a positive response to a toe pinch.

Values after ≈ are worked out from the molar mass of the structure shown. Where a SMILES comes first, the peptide text is derived from it. Where no end group is shown, it is not given here. [ ]: non-standard residue; d: D form. d(hArg)(Nω,Nω'-(CH2CF3)2) = N[C@H](CCCCNC(=NCC(F)(F)F)NCC(F)(F)F)C(=O)O; Oic = O=C(O)[C@@H]1C[C@@H]2CCCC[C@@H]2N1; Arg(Me2s) = CN=C(NC)NCCC[C@H](N)C(=O)O; Arg(Et) = CCNC(=N)NCCC[C@H](N)C(=O)O; Arg(Me) = CNC(=N)NCCC[C@H](N)C(=O)O; Hyp = O=C(O)[C@@H]1C[C@@H](O)CN1; dTic = O=C(O)[C@H]1Cc2ccccc2CN1; 2Thi = N[C@@H](Cc1cccs1)C(=O)O Some results are limits rather than exact numbers.

Regarding `CN=C(NC)NCCC[C@H](NC(=O)[C@@H]1C[C@@H]2CCCC[C@@H]2N1C(=O)[C@H]1Cc2ccccc2CN1C(=O)[C@H](CO)NC(=O)[C@H](Cc1ccccc1)NC(=O)CNC(=O)[C@@H]1C[C@@H](O)CN1C(=O)[C@@H]1CCCN1C(=O)[C@H](CCCNC(=NC)NC)NC(=O)[C@H](N)CCCCNC(=NCC(F)(F)F)NCC(F)(F)F)C(=O)O` [Compound 89, D-hArg(CH₂CF₃)₂-Arg(Me₂)-Pro-Hyp-Gly-Phe-Ser-D-Tic-Oic-Arg(Me₂)] (H-[d(hArg)(Nω,Nω'-(CH2CF3)2)][Arg(Me2s)]P[Hyp]GFS[dTic][Oic][Arg(Me2s)]-OH), the “EC50 (histamine release)” value in data set [1] is listed as 312 µg/mL (≈ 204 µM). In addition, the IC50 on Bradykinin Receptor amounted to 0.07 nM.
With `N=C(N)NCCC[C@H](NC(=O)[C@@H]1CCCN1C(=O)[C@H]1Cc2ccccc2CN1C(=O)[C@H](CO)NC(=O)[C@H](Cc1cccs1)NC(=O)CNC(=O)[C@@H]1C[C@@H](O)CN1C(=O)[C@@H]1CCCN1C(=O)[C@H](CCCNC(=N)N)NC(=O)[C@H](N)CCCCNC(=NCC(F)(F)F)NCC(F)(F)F)C(=O)O` [Compound 75, D-hArg(CH₂CF₃)₂-Arg-Pro-Hyp-Gly-Thi-Ser-D-Tic-Pro-Arg] (H-[d(hArg)(Nω,Nω'-(CH2CF3)2)]RP[Hyp]G[2Thi]S[dTic]PR-OH), the IC50 on Bradykinin Receptor amounted to 1 nM.
As usually defined, the half-life is how long it takes for the measured level to halve. High values mean slow loss, low ones fast loss. As for `CN=C(N)NCCC[C@H](NC(=O)[C@H](Cc1ccc(OC)cc1)NC(=O)[C@@H](Cc1ccccc1)NC(=O)[C@H](CO)NC(=O)[C@H](Cc1ccccc1)NC(=O)CNC(=O)[C@@H]1C[C@@H](O)CN1C(=O)[C@@H]1CCCN1C(=O)[C@H](CCCNC(=N)N)NC(=O)[C@H](N)CCCNC(=N)N)C(=O)O` [Compound 74, D-Arg-Arg-Pro-Hyp-Gly-Phe-Ser-D-Phe-Tyr(Me)-Arg(Me)] (H-[dR]RP[Hyp]GFS[dF]Y(Me)[Arg(Me)]-OH), the half-life at 60 µM is greater than 2 h in “in vitro [2]” (human, plasma) and greater than 2 h in “in vitro [3]” (mouse, plasma). For the same compound, on Bradykinin Receptor, the IC50 was determined as 30 nM.
Regarding `CN=C(N)NCCC[C@H](NC(=O)[C@@H]1C[C@@H]2CCCC[C@@H]2N1C(=O)[C@H]1Cc2ccccc2CN1C(=O)[C@H](CO)NC(=O)[C@H](Cc1ccccc1)NC(=O)CNC(=O)[C@@H]1C[C@@H](O)CN1C(=O)[C@@H]1CCCN1C(=O)[C@H](CCCNC(N)=NC)NC(=O)[C@H](N)CCCCNC(=NCC(F)(F)F)NCC(F)(F)F)C(=O)O` [Compound 91, D-hArg(CH₂CF₃)₂-Arg(Me)-Pro-Hyp-Gly-Phe-Ser-D-Tic-Oic-Arg(Me)] (H-[d(hArg)(Nω,Nω'-(CH2CF3)2)][Arg(Me)]P[Hyp]GFS[dTic][Oic][Arg(Me)]-OH), the half-life at 60 µM in the data set “in vitro [2]” (human, plasma) was greater than 2 h; in “in vitro [3]” (mouse, plasma), greater than 2 h. In addition, the IC50 at Bradykinin Receptor is 0.05 nM.
For `CN=C(N)NCCC[C@H](NC(=O)[C@@H]1C[C@@H]2CCCC[C@@H]2N1C(=O)[C@H]1Cc2ccccc2CN1C(=O)[C@H](CO)NC(=O)[C@H](Cc1cccs1)NC(=O)CNC(=O)[C@@H]1C[C@@H](O)CN1C(=O)[C@@H]1CCCN1C(=O)[C@H](CCCNC(N)=NC)NC(=O)[C@H](N)CCCCNC(=NCC(F)(F)F)NCC(F)(F)F)C(=O)O` [Compound 22, D-hArg(CH₂CF₃)₂-Arg(Me)-Pro-Hyp-Gly-Thi-Ser-D-Tic-Oic-Arg(Me)], the half-life at 60 µM in “in vitro [2]” (human, plasma) is greater than 2 h; in the data set “in vitro [3]” (mouse, plasma), greater than 2 h. For the same compound, the IC50 on Bradykinin Receptor turned out to be 0.05 nM.
Take `CN=C(N)NCCC[C@H](NC(=O)[C@H](Cc1ccccc1)NC(=O)[C@@H](Cc1ccccc1)NC(=O)[C@H](CO)NC(=O)[C@H](Cc1ccccc1)NC(=O)CNC(=O)[C@@H]1C[C@@H](O)CN1C(=O)[C@@H]1CCCN1C(=O)[C@H](CCCNC(=N)N)NC(=O)[C@H](N)CCCCNC(=NCC(F)(F)F)NCC(F)(F)F)C(=O)O` [Compound 1, D-hArg(CH₂CF₃)₂-Arg-Pro-Hyp-Gly-Phe-Ser-D-Phe-Phe-Arg(Me)]: the half-life at 60 µM in the data set “in vitro [2]” (human, plasma) is greater than 2 h; in the data set “in vitro [3]” (mouse, plasma), greater than 2 h.
For RPPGFSPFR [bradykinin], the half-life at 60 µM in the data set “in vitro [2]” is less than 0.0833 h; in the data set “in vitro [3]” it was less than 0.0833 h; in the data set “in vitro [3]” (rat, plasma) it was less than 0.0833 h. Further, the “half-life in the systemic circulation” value in data set [4] is listed as “less than 30 seconds”.
Turning to `CN=C(N)NCCC[C@H](NC(=O)[C@@H]1CCCN1C(=O)[C@H]1Cc2ccccc2CN1C(=O)[C@H](CO)NC(=O)[C@H](Cc1ccccc1)NC(=O)CNC(=O)[C@@H]1C[C@@H](O)CN1C(=O)[C@@H]1CCCN1C(=O)[C@H](CCCNC(N)=NC)NC(=O)[C@H](N)CCCCNC(=NCC(F)(F)F)NCC(F)(F)F)C(=O)O` [Compound 21, D-hArg(CH₂CF₃)₂-Arg(Me)-Pro-Hyp-Gly-Phe-Ser-D-Tic-Pro-Arg(Me)] (H-[d(hArg)(Nω,Nω'-(CH2CF3)2)][Arg(Me)]P[Hyp]GFS[dTic]P[Arg(Me)]-OH), on Bradykinin Receptor, the IC50 is 2.2 nM.
In the case of `CCN=C(N)NCCC[C@H](NC(=O)[C@H](N)CCCCNC(=NCC(F)(F)F)NCC(F)(F)F)C(=O)N1CCC[C@H]1C(=O)N1C[C@H](O)C[C@H]1C(=O)NCC(=O)N[C@@H](Cc1ccccc1)C(=O)N[C@@H](CO)C(=O)N1Cc2ccccc2C[C@@H]1C(=O)N1[C@H](C(=O)N[C@@H](CCCNC(=NC)NC)C(=O)O)C[C@@H]2CCCC[C@@H]21` [Compound 90, D-hArg(CH₂CF₃)₂-Arg(Et)-Pro-Hyp-Gly-Phe-Ser-D-Tic-Oic-Arg(Me₂)] (H-[d(hArg)(Nω,Nω'-(CH2CF3)2)][Arg(Et)]P[Hyp]GFS[dTic][Oic][Arg(Me2s)]-OH), in data set [1], the “EC50 (histamine release)” value turned out to be 216 µg/mL (≈ 141 µM). Also, on Bradykinin Receptor, the IC50 turned out to be 0.04 nM.
Consider `CN=C(N)NCCC[C@H](NC(=O)[C@H](Cc1ccc(OC)cc1)NC(=O)[C@@H](Cc1ccccc1)NC(=O)[C@H](CO)NC(=O)[C@H](Cc1ccccc1)NC(=O)CNC(=O)[C@@H]1C[C@@H](O)CN1C(=O)[C@@H]1CCCN1C(=O)[C@H](CCCNC(=N)N)NC(=O)[C@H](N)CCCCNC(=NCC(F)(F)F)NCC(F)(F)F)C(=O)O` [Compound 4, D-hArg(CH₂CF₃)₂-Arg-Pro-Hyp-Gly-Phe-Ser-D-Phe-Tyr(Me)-Arg(Me)] (H-[d(hArg)(Nω,Nω'-(CH2CF3)2)]RP[Hyp]GFS[dF]Y(Me)[Arg(Me)]-OH), for which, in data set [5], the “protection against bradykinin-induced hypotension (drop in blood pressure)” value is reported as “reduced or prevented the drop in blood pressure”.
On to `CN=C(NC)NCCC[C@H](NC(=O)[C@@H]1C[C@@H]2CCCC[C@@H]2N1C(=O)[C@H]1Cc2ccccc2CN1C(=O)[C@H](CO)NC(=O)[C@H](Cc1cccs1)NC(=O)CNC(=O)[C@@H]1C[C@@H](O)CN1C(=O)[C@@H]1CCCN1C(=O)[C@H](CCCNC(=NC)NC)NC(=O)[C@H](N)CCCCNC(=NCC(F)(F)F)NCC(F)(F)F)C(=O)O` [Compound 81, D-hArg(CH₂CF₃)₂-Arg(Me₂)-Pro-Hyp-Gly-Thi-Ser-D-Tic-Oic-Arg(Me₂)], for which the IC50 at Bradykinin Receptor is 0.15 nM.
